Biological target: T1, Human MGAT-2 (Homo sapiens, UniProt Q3SYC2)
T1 construct: made in house; host or cells: Sf9 cells (membrane preparation)
Assay: MGAT LCMS Assay
Assay type: biochemical
Conditions: human MGAT2 membranes expressed in Sf9 cells; 100 μM 2-oleoylglycerol, 15 μM oleoyl-coenzyme A; read-out: h-MGAT LCMS IC50
Procedure: Assay plates were run through a fully automated robotics system and shaken for 5 seconds every minute for a total 10 minutes. The reactions were then quenched with 120 μL of ice cold methanol containing 1 μg/mL 1,2-distearoyl-rac-glycerol as the internal standard. Plates were shaken for 2 minutes and spun down to remove protein precipitation. After the spin, samples were transferred to LC/MS compatible PCR plates. For LC/MS analysis, a ThermoFisher Surveyor pump, utilizing a Waters […]® C8, 50×2.1 mm column, was used for the chromatography of enzyme products. The buffer system consists of 0.1% formic acid in water with a mobile phase consisting 0.1% formic acid in methanol. […] The first 0.5 minutes of each injection was diverted to waste to eliminate the presence of Phosphate buffer in the enzymatic reaction. The column was run at 0.6 mL/min and a temperature of 65° C. Mass spectrometry analysis of the samples was performed on a ThermoFisher Quantum Triple quad utilizing APCI (+) as the mode of ionization. […] The ratio of Diolein to internal standard (Peak Area Ratio) is utilized to calculate IC50 values.

T1 sequence (Q3SYC2 whole entry): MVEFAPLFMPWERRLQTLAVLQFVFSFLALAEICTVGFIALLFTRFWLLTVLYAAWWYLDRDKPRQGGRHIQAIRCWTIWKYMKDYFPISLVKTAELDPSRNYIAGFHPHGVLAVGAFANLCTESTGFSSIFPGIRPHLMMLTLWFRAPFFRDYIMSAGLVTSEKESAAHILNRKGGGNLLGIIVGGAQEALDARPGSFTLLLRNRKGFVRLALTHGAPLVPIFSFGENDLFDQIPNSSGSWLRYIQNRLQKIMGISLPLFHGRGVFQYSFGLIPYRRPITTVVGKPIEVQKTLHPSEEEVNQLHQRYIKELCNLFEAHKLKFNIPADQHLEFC

Q: For `CCC/C=C/c1ccc(-c2cc(-c3ccc(N(C)C)cc3)c(-c3nn[nH]n3)c(=O)[nH]2)cc1` [Example 80, (E)-4-(4-(Dimethylamino)phenyl)-6-(4-(pent-1-en-1-yl)phenyl)-3-(2H-tetrazol-5-yl)pyridin-2(1H)-one], which IC50 is on record?
A: 168 nM

Q: How did the IC50 turn out when `Cc1ccc(-c2cc(-c3ccc(Cc4ccccc4)cc3)[nH]c(=O)c2-c2nn[nH]n2)cc1` [Example 81, 6-(4-Benzylphenyl)-3-(2H-tetrazol-5-yl)-4-(p-tolyl)pyridin-2(1H)-one] was run?
A: 256 nM

Q: `CN(C)c1ncc(-c2cc(C3CCCCC3)[nH]c(=O)c2C(=O)Nc2ccc(OC(F)(F)F)cc2)s1` [Example 82, 6-Cyclohexyl-4-(2-(dimethylamino)thiazol-5-yl)-2-oxo-N-(4-(trifluoromethoxy)phenyl)-1,2-dihydropyridinc-3-carboxamide] was tested. Which IC50 did it give?
A: 1 nM

Q: How did the IC50 turn out when `CCc1ccc(-c2cc(-c3ccc(OCCCCCC(F)(F)F)cc3)[nH]c(=O)c2C(=O)NS(=O)(=O)C2CC2)s1` [Example 84, N-(Cyclopropylsulfonyl)-4-(5-ethylthiophen-2-yl)-2-oxo-6-(4-((6,6,6-trifluorohexyl)oxy)phenyl)-1,2-dihydropyridine-3-carboxamide] was run?
A: 1 nM

Q: With `O=C(Nc1ccc(OC(F)(F)F)cc1)c1c(-c2ccc(Cl)s2)cc(C2CCCCC2)[nH]c1=O` [Example 85, 4-(5-Chlorothiophen-2-yl)-6-cyclohexyl-2-oxo-N-(4-(trifluoromethoxy)phenyl)-1,2-dihydropyridine-3-carboxamide] as the molecule, how does the IC50 read?
A: 7 nM

Q: For `O=c1[nH]c(-c2ccc(OCCCC(F)(F)F)cc2F)cc(-c2ccc3c(c2)CCCC3)c1-c1nn[nH]n1` [Example 89, 6-(2-Fluoro-4-(4,4,4-trifluorobutoxy)phenyl)-4-(5,6,7,8-tetrahydronaphthalen-2-yl)-3-(2H-tetrazol-5-yl)pyridin-2(1H)-one], which IC50 is on record?
A: 24 nM

Q: How did the IC50 turn out when `O=C(Nc1ccc(OC(F)(F)F)cc1)c1c(-c2cnn(C3CC3)c2)cc(C2CCCCC2)[nH]c1=O` [Example 94] was run?
A: 355 nM

Q: For `O=C(Nc1ccc(OC(F)(F)F)cc1)c1c(-c2cnn(C3CC3)c2)cc(-c2ccc(OCCCC(F)(F)F)cc2)[nH]c1=O` [Example 95, 4-(1-Cyclopropyl-1H-pyrazol-4-yl)-2-oxo-6-(4-(4,4,4-trifluorobutoxy)phenyl)-N-(4-(trifluoromethoxy)phenyl)-1,2-dihydropyridine-3-carboxamide], which IC50 is on record?
A: 17 nM

Q: `O=c1[nH]c(-c2ccc(OCCCCCC(F)(F)F)cc2F)cc(-c2ccc(C3CC3)s2)c1-c1nn[nH]n1` [Example 96, 4-(5-Cyclopropylthiophen-2-yl)-6-(2-fluoro-4-((6,6,6-trifluorohexyl)oxy)phenyl)-3-(2H-tetrazol-5-yl)pyridin-2(1H)-one] was tested. Which IC50 did it give?
A: 1 nM

Q: Which IC50 does the source give for `O=c1[nH]c(-c2ccc(OCCCC(F)(F)F)cc2)cc(-c2ccn(CC3CC3)n2)c1-c1nnn[nH]1` [Example 97] here?
A: 153 nM

Q: `CS(=O)(=O)NC(=O)c1c(-c2ccn(CC3CC3)n2)cc(-c2ccc(OCCCC(F)(F)F)cc2)[nH]c1=O` [Example 98, 4-(1-(Cyclopropylmethyl)-1H-pyrazol-3-yl)-N-(methylsulfonyl)-2-oxo-6-(4-(4,4,4-trifluorobutoxy)phenyl)-1,2-dihydropyridine-3-carboxamide] was tested. Which IC50 did it give?
A: 332 nM

Q: Which IC50 does the source give for `CCc1ccc(-c2cc(-c3ccc(OCCCCCC(F)(F)F)cc3)[nH]c(=O)c2C(=O)NS(C)(=O)=O)s1` [Example 101, 4-(5-Ethylthiophen-2-yl)-N-(methylsulfonyl)-2-oxo-6-(4-((6,6,6-trifluorohexyl)oxy)phenyl)-1,2-dihydropyridine-3-carboxamide] here?
A: 7 nM

Q: For `O=c1[nH]c(-c2ccc(CCCCC(F)(F)F)cc2F)cc(-c2ccn(C3CCC3)n2)c1-c1nnn[nH]1` [Example 103], which IC50 is on record?
A: 26 nM

Q: With `O=c1[nH]c(-c2ccc(OCCCCCC(F)(F)F)cc2F)cc(-c2ccn(C3CC3)n2)c1-c1nn[nH]n1` [Example 104, 4-(1-Cyclopropyl-1H-pyrazol-3-yl)-6-(2-fluoro-4-((6,6,6-trifluorohexyl)oxy)phenyl)-3-(2H-tetrazol-5-yl)pyridin-2(1H)-one] as the molecule, how does the IC50 read?
A: 84 nM

Q: With `CS(=O)(=O)NC(=O)c1c(-c2ccn(CC3CC3)n2)cc(-c2ccc(OCCCCCC(F)(F)F)cc2)[nH]c1=O` [Example 105, 4-(1-(Cyclopropylmethyl)-1H-pyrazol-3-yl)-N-(methylsulfonyl)-2-oxo-6-(4-((6,6,6-trifluorohexyl)oxy)phenyl)-1,2-dihydropyridine-3-carboxamide] as the molecule, how does the IC50 read?
A: 23 nM

Q: `O=c1[nH]c(-c2ccc(OCCCCCC(F)(F)F)cc2)cc(-c2ccn(C3CC3)n2)c1-c1nnn[nH]1` [Example 107] was tested. Which IC50 did it give?
A: 99 nM

Q: How did the IC50 turn out when `O=c1[nH]c(-c2ccc(OCCCCCC(F)(F)F)cc2)cc(-c2ccc(OC(F)F)cc2)c1-c1nnn[nH]1` [Example 108, 4-(4-(Difluoromethoxy)phenyl)-3-(1H-tetrazol-5-yl)-6-(4-((6,6-trifluorohexyl)oxy)phenyl)pyridin-2(1H)-one] was run?
A: 14 nM

Q: Which IC50 does the source give for `CS(=O)(=O)NC(=O)c1c(-c2ccn(CC3CC3)n2)c(F)c(-c2ccc(OCCCC(F)(F)F)cc2)[nH]c1=O` [Example 109, 4-(1-(Cyclopropylmethyl)-1H-pyrazol-3-yl)-5-fluoro-N-(methylsulfonyl)-2-oxo-6-(4-(4,4,4-trifluorobutoxy)phenyl)-1,2-dihydropyridine-3-carboxamide] here?
A: 130 nM

Q: For `O=c1[nH]c(-c2ccc(OCCCCCC(F)(F)F)cc2)cc(-c2ccn(CC3CC3)n2)c1-c1nnn[nH]1` [Example 110, 4-(1-(Cyclopropylmethyl)-1H-pyrazol-3-yl)-3-(1H-tetrazol-5-yl)-6-(4-((6,6,6-trifluorohexyl)oxy)phenyl)pyridin-2(1H)-one], which IC50 is on record?
A: 43 nM

Q: With `Cc1ccc(-c2cc(-c3ccc(OCCCC(F)(F)F)cc3C(F)(F)F)[nH]c(=O)c2C(=O)Nc2ccc(OC(F)(F)F)cc2)cc1` [Example 111, 2-Oxo-4-(p-tolyl)-6-(4-(4,4,4-trifluorobutoxy)-2-(trifluoromethyl)phenyl)-N-(4-(trifluorormethoxy)phenyl)-1,2-dihydropyridine-3-carboxamide] as the molecule, how does the IC50 read?
A: 2 nM

Q: Which IC50 does the source give for `O=c1[nH]c(-c2ccc(OCCCC(F)(F)F)cc2F)cc(-c2ccc(OC(F)F)cc2)c1-c1nn[nH]n1` [Example 113, 4-(4-(Difluoromethoxy)phenyl)-6-(2-fluoro-4-(4,4,4-trifluorobutoxy)phenyl)-3-(2H-tetrazol-5-yl)pyridin-2(1H)-one] here?
A: 7 nM

Q: Which IC50 does the source give for `CCOc1ccc(NC(=O)c2c(-c3ccc(C)cc3)cc(-c3ccc(OCCCC(F)(F)F)cc3F)[nH]c2=O)cc1` [Example 114, N-(4-Ethoxyphenyl)-6-(2-fluoro-4-(4,4,4-trifluorobutoxy)phenyl)-2-oxo-4-(p-tolyl)-1,2-dihydropyridine-3-carboxamide] here?
A: 14 nM

Q: For `CCc1ccc(-c2cc(-c3ccc(OCCCC(F)(F)F)cc3F)[nH]c(=O)c2C(=O)Nc2ccc(OC(F)(F)F)cc2)s1` [Example 116, 4-(5-Ethylthiophen-2-yl)-6-(2-fluoro-4-(4,4,4-trifluorobutoxy)phenyl)-2-oxo-N-(4-(trifluoromethoxy)phenyl)-1,2-dihydropyridine-3-carboxamide], which IC50 is on record?
A: 17 nM

Q: How did the IC50 turn out when `Cc1ccc(-c2c(F)c(-c3ccc(OCCCCCC(F)(F)F)cc3)[nH]c(=O)c2C(=O)NS(C)(=O)=O)cc1` [Example 117, 5-Fluoro-N-(methylsulfonyl)-2-oxo-4-(p-tolyl)-6-(4-((6,6,6-trifluorohexyl)oxy)phenyl)-1,2-dihydropyridine-3-carboxamide] was run?
A: 29 nM
